Starred links: 1 amine or outer side, 2 acyl side, 3 side chain; linkers in the order of their positions; H or OH if unused. Positions of bridges follow the written chain, without caps; N, C: chain ends. Non-standard residues stand in square brackets, D forms with d. Residues, ends and D or L forms follow the SMILES beside them. Chains are numbered I, II in the order given. Orn = NCCC[C@H](N)C(=O)O; X1 = O=C(C[*:1])[*:2]
Assays:
[1] = Cytotoxicity against human MT4 cells by MTT assay; format: cell-based
[2] = tested on: Human immunodeficiency virus 1; test: Antiviral activity against macrophage-tropic HIV1 NL(AD8) infected in human PM1 expressing CCR5 cells assessed as inhibition of virus-induced cytopathogenicity after 5 days by MTT assay in presence of 5 uM of chloroquine; format: functional, organism-based; conditions: Human immunodeficiency virus 1, NL(AD8), PM1/CCR5, 120 h
[3] = Cytotoxicity against human PM1 cells expressing CCR5 by MTT assay in presence of 5 uM of chloroquine; format: cell-based
[4] = tested on: Human immunodeficiency virus 1; test: Antiviral activity against T-cell line-tropic HIV1 NL4-3 infected in human MT4 cells assessed as inhibition of virus-induced cytopathogenicity after 5 days by MTT assay; format: functional, organism-based; conditions: Human immunodeficiency virus 1, NL4-3, MT4, 120 h
[5] = Cytotoxicity against human MT4 cells by MTT assay in presence of 5 uM of chloroquine; format: cell-based
[6] = tested on: Human immunodeficiency virus 1; test: Antiviral activity against T-cell line-tropic HIV1 NL4-3 infected in human MT4 cells assessed as inhibition of virus-induced cytopathogenicity after 5 days by MTT assay in presence of 5 uM of chloroquine; format: functional, organism-based; conditions: Human immunodeficiency virus 1, NL4-3, MT4, 120 h

Row | Compound | CC50 [1] | EC50 [2] | CC50 [3] | EC50 [4] | CC50 [5] | EC50 [6]
1 | CC[C@H](C)[C@H](NC(=O)[C@H](CCCNC(=N)N)NC(=O)[C@H](CCC(N)=O)NC(=O)[C@H](Cc1c[nH]cn1)NC(=O)[C@@H](NC(=O)[C@H](CO)NC(=O)[C@H](Cc1ccc(O)cc1)NC(=O)[C@H](CC(C)C)NC(=O)[C@@H](NC(=O)[C@H](C)NC(=O)[C@@H](NC(=O)[C@@H](NC(=O)[C@H](CC(N)=O)NC(=O)[C@H](Cc1ccc(O)cc1)NC(C)=O)[C@@H](C)O)[C@@H](C)CC)C(C)C)C(C)C)C(=O)N[C@@H](CC(=O)O)C(=O)NCC(=O)N[C@@H](CSCC(=O)N[C@@H](CCCNC(=N)N)C(=O)N[C@@H](CCCN)C(=O)N[C@@H](CCCNC(=N)N)C(=O)N[C@@H](CCCN)C(=O)N[C@@H](CCCNC(=N)N)C(=O)N[C@@H](CCCN)C(=O)N[C@@H](CCCNC(=N)N)C(=O)N[C@@H](CCCN)C(N)=O)C(N)=O (I: Ac-YNTIAVLYSVHQRIDGC-NH2 / II: R[Orn]R[Orn]R[Orn]R[Orn]-NH2; linker I:17-II:N via X1) | 7 µM | 1.4 µM | 7.6 µM | > 7 µM | 7.7 µM | 1.7 µM
2 | CC[C@H](C)[C@H](NC(=O)[C@H](CCCNC(=N)N)NC(=O)[C@H](CCC(N)=O)NC(=O)[C@H](Cc1c[nH]cn1)NC(=O)[C@@H](NC(=O)[C@H](CO)NC(=O)[C@H](Cc1ccc(O)cc1)NC(=O)[C@H](CC(C)C)NC(=O)[C@@H](NC(=O)[C@H](C)NC(=O)[C@@H](NC(=O)[C@@H](NC(=O)[C@H](CC(N)=O)NC(=O)[C@H](Cc1ccc(O)cc1)NC(=O)[C@H](CC(C)C)NC(C)=O)[C@@H](C)O)[C@@H](C)CC)C(C)C)C(C)C)C(=O)NCC(=O)N[C@@H](CSCC(=O)N[C@@H](CCCNC(=N)N)C(=O)N[C@@H](CCCN)C(=O)N[C@@H](CCCNC(=N)N)C(=O)N[C@@H](CCCN)C(=O)N[C@@H](CCCNC(=N)N)C(=O)N[C@@H](CCCN)C(=O)N[C@@H](CCCNC(=N)N)C(=O)N[C@@H](CCCN)C(N)=O)C(N)=O (I: Ac-LYNTIAVLYSVHQRIGC-NH2 / II: R[Orn]R[Orn]R[Orn]R[Orn]-NH2; linker I:17-II:N via X1) | 11 µM | 2.8 µM | 8.7 µM | 6.3 µM | 12 µM | 0.64 µM
3 | CC[C@H](C)[C@H](NC(=O)[C@H](CCCCN)NC(=O)[C@@H](NC(=O)[C@H](CCC(N)=O)NC(=O)[C@H](CCCNC(=N)N)NC(=O)[C@H](C)NC(=O)[C@H](Cc1c[nH]cn1)NC(C)=O)[C@@H](C)O)C(=O)N[C@@H](Cc1ccc(O)cc1)C(=O)N[C@H](C(=O)N[C@H](C(=O)N[C@@H](CC(=O)O)C(=O)N[C@H](C(=O)N[C@@H](CC(C)C)C(=O)N[C@@H](CO)C(=O)N[C@H](C(=O)NCC(=O)N[C@@H](CSCC(=O)N[C@@H](CCCNC(=N)N)C(=O)N[C@@H](CCCN)C(=O)N[C@@H](CCCNC(=N)N)C(=O)N[C@@H](CCCN)C(=O)N[C@@H](CCCNC(=N)N)C(=O)N[C@@H](CCCN)C(=O)N[C@@H](CCCNC(=N)N)C(=O)N[C@@H](CCCN)C(N)=O)C(N)=O)C(C)C)C(C)C)C(C)C)[C@@H](C)CC (I: Ac-HARQTKIYIVDVLSVGC-NH2 / II: R[Orn]R[Orn]R[Orn]R[Orn]-NH2; linker I:17-II:N via X1) | 8.2 µM | > 8.7 µM | 8.7 µM | > 8.2 µM | 8.2 µM | > 8.2 µM
4 | CC[C@H](C)[C@H](NC(=O)[C@@H](NC(=O)[C@H](CC(N)=O)NC(=O)[C@H](Cc1ccc(O)cc1)NC(=O)[C@H](CC(C)C)NC(=O)[C@H](CO)NC(C)=O)[C@@H](C)O)C(=O)N[C@@H](C)C(=O)N[C@H](C(=O)N[C@@H](CC(C)C)C(=O)N[C@@H](Cc1ccc(O)cc1)C(=O)N[C@@H](CO)C(=O)N[C@H](C(=O)N[C@@H](Cc1c[nH]cn1)C(=O)N[C@@H](CCC(N)=O)C(=O)N[C@@H](CCCNC(=N)N)C(=O)NCC(=O)N[C@@H](CSCC(=O)N[C@@H](CCCNC(=N)N)C(=O)N[C@@H](CCCN)C(=O)N[C@@H](CCCNC(=N)N)C(=O)N[C@@H](CCCN)C(=O)N[C@@H](CCCNC(=N)N)C(=O)N[C@@H](CCCN)C(=O)N[C@@H](CCCNC(=N)N)C(=O)N[C@@H](CCCN)C(N)=O)C(N)=O)C(C)C)C(C)C (I: Ac-SLYNTIAVLYSVHQRGC-NH2 / II: R[Orn]R[Orn]R[Orn]R[Orn]-NH2; linker I:17-II:N via X1) | 4.8 µM | > 4.6 µM | 4.6 µM | > 4.8 µM | 4.4 µM | 1 µM
5 | CC[C@H](C)[C@H](NC(=O)[C@H](CCCNC(=N)N)NC(=O)[C@H](CCC(N)=O)NC(=O)[C@H](Cc1c[nH]cn1)NC(=O)[C@@H](NC(=O)[C@H](CO)NC(=O)[C@H](Cc1ccc(O)cc1)NC(=O)[C@H](CC(C)C)NC(=O)[C@@H](NC(=O)[C@H](C)NC(=O)[C@@H](NC(=O)[C@@H](NC(=O)[C@H](CC(N)=O)NC(C)=O)[C@@H](C)O)[C@@H](C)CC)C(C)C)C(C)C)C(=O)N[C@@H](CC(=O)O)C(=O)N[C@H](C(=O)NCC(=O)N[C@@H](CSCC(=O)N[C@@H](CCCNC(=N)N)C(=O)N[C@@H](CCCN)C(=O)N[C@@H](CCCNC(=N)N)C(=O)N[C@@H](CCCN)C(=O)N[C@@H](CCCNC(=N)N)C(=O)N[C@@H](CCCN)C(=O)N[C@@H](CCCNC(=N)N)C(=O)N[C@@H](CCCN)C(N)=O)C(=O)O)C(C)C (I: Ac-NTIAVLYSVHQRIDVGC-OH / II: R[Orn]R[Orn]R[Orn]R[Orn]-NH2; linker I:17-II:N via X1) | 18 µM | 5.6 µM | 17 µM | > 18 µM | 18 µM | 2 µM
6 | CC[C@H](C)[C@H](NC(=O)[C@@H](NC(=O)[C@H](CC(N)=O)NC(=O)[C@H](Cc1ccc(O)cc1)NC(=O)[C@H](CC(C)C)NC(=O)[C@H](CO)NC(=O)[C@H](CCCNC(=N)N)NC(C)=O)[C@@H](C)O)C(=O)N[C@@H](C)C(=O)N[C@H](C(=O)N[C@@H](CC(C)C)C(=O)N[C@@H](Cc1ccc(O)cc1)C(=O)N[C@@H](CO)C(=O)N[C@H](C(=O)N[C@@H](Cc1cnc[nH]1)C(=O)N[C@@H](CCC(N)=O)C(=O)NCC(=O)N[C@@H](CSCC(=O)N[C@@H](CCCNC(=N)N)C(=O)N[C@@H](CCCN)C(=O)N[C@@H](CCCNC(=N)N)C(=O)N[C@@H](CCCN)C(=O)N[C@@H](CCCNC(=N)N)C(=O)N[C@@H](CCCN)C(=O)N[C@@H](CCCNC(=N)N)C(=O)N[C@@H](CCCN)C(N)=O)C(N)=O)C(C)C)C(C)C (I: Ac-RSLYNTIAVLYSVHQGC-NH2 / II: R[Orn]R[Orn]R[Orn]R[Orn]-NH2; linker I:17-II:N via X1) | 9.2 µM | 1.3 µM | 8.2 µM | 5.2 µM | 9.2 µM | 0.85 µM
7 | CC[C@H](C)[C@H](NC(=O)[C@@H](NC(=O)[C@H](CC(N)=O)NC(=O)[C@H](Cc1ccc(O)cc1)NC(=O)[C@H](CC(C)C)NC(=O)[C@H](CO)NC(=O)[C@H](CCCNC(=N)N)NC(=O)[C@H](CC(C)C)NC(=O)[C@H](CCC(=O)O)NC(=O)[C@H](CCC(=O)O)NC(=O)[C@H](CO)NC(C)=O)[C@@H](C)O)C(=O)N[C@@H](C)C(=O)N[C@H](C(=O)N[C@@H](CC(C)C)C(=O)N[C@@H](Cc1ccc(O)cc1)C(=O)NCC(=O)N[C@@H](CSCC(=O)N[C@@H](CCCNC(=N)N)C(=O)N[C@@H](CCCNC(=N)N)C(=O)N[C@@H](CCCNC(=N)N)C(=O)N[C@@H](CCCNC(=N)N)C(=O)N[C@@H](CCCNC(=N)N)C(=O)N[C@@H](CCCNC(=N)N)C(=O)N[C@@H](CCCNC(=N)N)C(=O)N[C@@H](CCCNC(=N)N)C(N)=O)C(N)=O)C(C)C | 10 µM | > 13 µM | 13 µM | > 10 µM | 8.7 µM | > 8.7 µM
8 | CC[C@H](C)[C@H](NC(=O)[C@@H](NC(=O)[C@H](CC(N)=O)NC(=O)[C@H](Cc1ccc(O)cc1)NC(=O)[C@H](CC(C)C)NC(=O)[C@H](CO)NC(=O)[C@H](CCCNC(=N)N)NC(=O)[C@H](CC(C)C)NC(=O)[C@H](CCC(=O)O)NC(C)=O)[C@@H](C)O)C(=O)N[C@@H](C)C(=O)N[C@H](C(=O)N[C@@H](CC(C)C)C(=O)N[C@@H](Cc1ccc(O)cc1)C(=O)N[C@@H](CO)C(=O)N[C@H](C(=O)NCC(=O)N[C@@H](CSCC(=O)N[C@@H](CCCNC(=N)N)C(=O)N[C@@H](CCCN)C(=O)N[C@@H](CCCNC(=N)N)C(=O)N[C@@H](CCCN)C(=O)N[C@@H](CCCNC(=N)N)C(=O)N[C@@H](CCCN)C(=O)N[C@@H](CCCNC(=N)N)C(=O)N[C@@H](CCCN)C(N)=O)C(N)=O)C(C)C)C(C)C | 7.7 µM | 2.3 µM | 8.4 µM | > 7.7 µM | 8.1 µM | 4.5 µM
9 | CC[C@H](C)[C@H](NC(=O)[C@@H](NC(=O)[C@H](CC(N)=O)NC(=O)[C@H](Cc1ccc(O)cc1)NC(=O)[C@H](CC(C)C)NC(=O)[C@H](CO)NC(=O)[C@H](CCCNC(=N)N)NC(=O)[C@H](CC(C)C)NC(=O)[C@H](CCC(=O)O)NC(=O)[C@H](CCC(=O)O)NC(C)=O)[C@@H](C)O)C(=O)N[C@@H](C)C(=O)N[C@H](C(=O)N[C@@H](CC(C)C)C(=O)N[C@@H](Cc1ccc(O)cc1)C(=O)N[C@@H](CO)C(=O)NCC(=O)N[C@@H](CSCC(=O)N[C@@H](CCCNC(=N)N)C(=O)N[C@@H](CCCN)C(=O)N[C@@H](CCCNC(=N)N)C(=O)N[C@@H](CCCN)C(=O)N[C@@H](CCCNC(=N)N)C(=O)N[C@@H](CCCN)C(=O)N[C@@H](CCCNC(=N)N)C(=O)N[C@@H](CCCN)C(N)=O)C(N)=O)C(C)C | 9.3 µM | > 9.3 µM | 9.3 µM | > 9.3 µM | 10 µM | > 10 µM
10 | COC[C@@H](c1ccc(C(F)(F)F)cc1)N1CCN(C2(C)CCN(C(=O)c3c(C)ncnc3C)CC2)C[C@@H]1C [VICRIVIROC] | > 5 µM | 0.0049 µM | > 5 µM | > 5 µM | > 5 µM | > 5 µM

From ChEMBL document CHEMBL3600292, “Anti-HIV screening for cell-penetrating peptides using chloroquine and identification of anti-HIV peptides derived from matrix proteins” (Bioorg Med Chem, 2015)
